Reference: patent US20040248913A1, “(Pyridinyl and pyrimidyl) trienoic acid derivatives as retinoid x receptor modulators” (priority 2001, published 2004)

Assays:
RXRα:RAR heterodimer [1] = target: T1, RXRα:RAR heterodimer (Homo sapiens, UniProt P19793); experiment: RXR:RAR heterodimer cotransfection assay in CV-1 cells; assay type: cell-based; settings: for RXR:RAR antagonist activity (in words): antagonist assay; for Antagonist Efficacy (%): relative to maximal repression (100%) in presence of 10 nM TTNPB
T1 construct: expressed in transfected cells; host or cells: CV-1 cells
T1 sequence (P19793 1-462): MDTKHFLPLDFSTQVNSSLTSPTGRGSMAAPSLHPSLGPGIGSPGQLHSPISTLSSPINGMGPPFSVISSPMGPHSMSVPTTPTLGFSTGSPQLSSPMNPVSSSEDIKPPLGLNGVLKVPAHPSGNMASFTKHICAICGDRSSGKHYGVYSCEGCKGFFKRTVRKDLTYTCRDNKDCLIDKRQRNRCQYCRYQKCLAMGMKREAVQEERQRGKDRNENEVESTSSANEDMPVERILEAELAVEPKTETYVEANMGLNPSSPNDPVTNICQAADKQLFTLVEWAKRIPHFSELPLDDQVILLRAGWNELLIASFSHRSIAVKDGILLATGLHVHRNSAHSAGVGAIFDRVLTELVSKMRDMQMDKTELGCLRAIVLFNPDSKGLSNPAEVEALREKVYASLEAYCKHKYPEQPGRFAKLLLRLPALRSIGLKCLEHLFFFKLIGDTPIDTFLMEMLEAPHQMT
From the text: (§1) In the co-transfection assay, cloned cDNA for one or more IRs (e.g., human RARα, RXRα, or PPARγ), alone or in combination (i.e. for heterodimer assays) under the control of a constitutive promoter (e.g., the SV 40, RSV or CMV promoter) is introduced by transfection (a procedure to introduce exogenous genes into cells) into a background cell substantially devoid of endogenous IRs. These introduced gene(s) direct the recipient cells to make the IR protein(s) of interest. A further gene is also introduced (co-transfected) into the same cells in conjunction with the IR gene(s). This further gene, comprising the cDNA for a reporter protein, such as firefly luciferase (LUC), controlled by an appropriate hormone responsive promoter containing a hormone response element (HRE). This reporter plasmid functions as a reporter for the transcriptional-modulating activity of the target IR(s). Thus, the reporter acts as a surrogate for the products (mRNA then protein) normally expressed by a gene under control of the target receptor(s) and their native hormone(s).
(§2) Compounds of the present invention were also tested for the ability to synergize with an RAR or PPARγ agonist in the context of an RXR heterodimer. […] Efficacy of the compounds of the present invention in the agonist and synergy assays was calculated as the maximum response obtained over the range of the dose response curve relative to the maximum response obtained by the reference agonist. Antagonist efficacy was determined as a function (%) of maximal inhibition.
(§3) RAR suppresses RXR ligand binding and transactivation of typical RXR agonists via allosteric interactions. […] However, when RAR is occupied, typical RXR agonists activate the heterodimer. […] To examine the effects of the compounds of the present invention on the transcriptional properties of the RXR:RAR heterodimer, a heterodimer cotransfection assay as described above was employed.

RXRα:RAR heterodimer [2] = experiment: as above; assay type: cell-based, human; settings: for Synergy Efficacy (%): maximal response in presence of 3 nM TTNPB relative to response to TTNPB alone; for Agonist Efficacy (%): maximal response relative to response of ATRA
From the text: as §1, §2, §3

RXRα:PPARγ heterodimer = target: T2, RXRα:PPARγ heterodimer (Homo sapiens, UniProt P19793); experiment: RXR:PPARγ heterodimer cotransfection assay in CV-1 cells; assay type: cell-based; settings: for Synergy Efficacy (%): maximal response in presence of 100 nM BRL49653 relative to response of BRL49653 alone; for Agonist Efficacy (%): maximal response relative to response of the thiazolidinedione BRL49653
T2 construct: expressed in transfected cells; host or cells: CV-1 cells
T2 sequence (P19793 1-462): T1 sequence (P19793 1-462)
T2 sequence (P37231 1-505 partner): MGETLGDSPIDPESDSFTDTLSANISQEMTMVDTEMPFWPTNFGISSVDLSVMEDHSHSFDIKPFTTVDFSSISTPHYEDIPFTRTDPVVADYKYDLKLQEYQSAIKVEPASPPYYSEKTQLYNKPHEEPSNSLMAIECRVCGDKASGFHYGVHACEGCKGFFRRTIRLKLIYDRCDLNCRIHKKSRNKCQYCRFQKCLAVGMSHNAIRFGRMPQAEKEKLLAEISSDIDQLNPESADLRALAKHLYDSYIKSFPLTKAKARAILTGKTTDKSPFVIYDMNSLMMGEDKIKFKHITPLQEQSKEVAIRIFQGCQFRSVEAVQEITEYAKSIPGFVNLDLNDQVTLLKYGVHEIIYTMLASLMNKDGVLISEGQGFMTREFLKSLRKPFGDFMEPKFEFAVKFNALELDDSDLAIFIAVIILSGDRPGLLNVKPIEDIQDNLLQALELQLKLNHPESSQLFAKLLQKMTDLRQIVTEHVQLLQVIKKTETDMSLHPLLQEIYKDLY
From the text: as §1
The compounds of the present invention were further tested for activity on RXR heterodimers with RARα, RARγ or PPARγ utilizing the cotransfection assay in CV-1 cells as described in Example 6A. The RXR:RAR heterodimer cotransfection assays utilized the following expression plasmids and reporter plasmid: pRShRARα (10 ng/well, Giguere et al., Nature, 330:624 (1987) the disclosure of which is herein incorporated by reference) or pRShRARγ (10 ng/well, Ishikawa et al., Mol. Endocrin., 4:837 (1990) the disclosure of which is herein incorporated by reference) with Δ-MTV-LUC (50 ng/well, Hollenberg and Evans, Cell, 55:899 (1988), the disclosure of which is herein incorporated by reference) containing an RARE which is referred to as two copies of the TRE-palindromic response element described in Umesono et al., Nature, 336:262 (1988), the disclosure of which is herein incorporated by reference. For the RSR:PPARγ heterodimer cotransfection assay, the RXRα receptor expression plasmid, pRShRXRα (10 ng/well), was cotrasfected with the PPARγ expression plasmid, pCMVhPPARγ (10 ng/well), and a reporter plasmid containing three copies of a PPARγ response element (pPREA3-tk-LUC, 50 ng/well; Mukherjee et al., Journ. Biol. Chem., 272:8071-8076 (1997) and references cited therein, the disclosures of which are herein incorporated by reference).
Cotransfections were performed as described in Example 6A. […] Antagonist efficacy and IC50 values were determined as in Example 6A.
Compounds of the present invention were also tested for the ability to synergize with an RAR or PPARγ agonist in the context of an RXR heterodimer. For these assays the compounds were added to the cells with a fixed concentration of TTNPB (1×10^−9 M) for RXR:RAR heterodimer assay or BRL 49633 (1×10^−7 M) for the RXR:PPARγ heterodimer assay. Efficacy of the compounds of the present invention in the agonist and synergy assays was calculated as the maximum response obtained over the range of the dose response curve relative to the maximum response obtained by the reference agonist. Antagonist efficacy was determined as a function (%) of maximal inhibition.
Kliewer et al., Nature 358:771-774 (1992). To examine the effects of the compounds of the present invention on the transcriptional properties of the RXR:PPARγ, a heterodimer cotransfection assay as described above was employed.

Compound | RXR:RAR antagonist activity (in words) (RXRα:RAR heterodimer [1]) | Antagonist Efficacy (%) (RXRα:RAR heterodimer [1]) | RXR:RAR agonist activity / transactivation alone (in words) (RXRα:RAR heterodimer [2]) | RXR:RAR agonist activity in combination with TTNPB (in words) (RXRα:RAR heterodimer [2]) | Synergy Efficacy (%) (RXRα:RAR heterodimer [2]) | Agonist Efficacy (%) (RXRα:RAR heterodimer [2]) | RXR:PPARγ agonist activity alone (in words) (RXRα:PPARγ heterodimer; alone) | RXR:PPARγ activity in combination with the PPARγ ligand (in words) (RXRα:PPARγ heterodimer; in combination with the PPARγ ligand) | Synergy Efficacy (%) (RXRα:PPARγ heterodimer) | Agonist Efficacy (%) (RXRα:PPARγ heterodimer)
CCCCOc1c(\C(C)=C/C=C/C(C)=C/C(=O)O)cc(C(C)C)nc1C(C)C [Example 1, 7-(3-Butoxy-2,6-diisopropyl-pyridin-4-yl)-3-methyl-octa-2(E),4(E),6(Z)-trienoic Acid] | significant RXR:RAR antagonist activity | 93 | not active | not active | 7 | 1 | partial agonists | stronger activity | 25 | 11
CCOc1c(\C(C)=C/C=C/C(C)=C/C(=O)O)cc(C(C)C)nc1C(C)C [Example 3, 7-(2,6-Diisopropyl-3-ethoxy-pyridin-4-yl)-3-methyl-octa-2(E),4(E),6(Z)-trienoic acid] |  |  |  | strong agonist activity | 73 | 6 |  |  | 182 | 42
C/C(=C/C=C/C(C)=C/C(=O)O)c1cc(C(C)C)nc(C(C)C)c1OCC(F)F [Example 4, 7-[3-(2,2-Difluoro-ethoxy)-2,6-diisopropyl-pyridin-4-yl]-3-methyl-octa-2(E),4(E),6(Z)-trienoic acid] |  | 76 |  | weak to moderate agonist activity | 37 | 9 |  |  | 233 | 53
CCCOc1c(\C(C)=C/C=C/C(C)=C/C(=O)O)cc(C(C)C)nc1C(C)C [Example 2, 7-(2,6-Diisopropyl-3-propoxy-pyridin-4-yl)-3-methyl-octa-2(E),4(E),6(Z)-trienoic Acid] | significant RXR:RAR antagonist activity | 88 | not active | not active | 6 | 2 |  |  | 150 | 32
C/C(=C/C=C/C(C)=C/C(=O)O)c1cc(C(C)C)nc(C(C)C)c1OCC(F)(F)F [Example 5, 7-[2,6-Diisopropyl-3-(2,2,2-trifluoro-ethoxy)-pyridin-4-yl]-3-methyl-octa-2(E),4(E),6(Z)-trienoic acid] |  | 85 |  | weak to moderate agonist activity | 18 | 3 |  |  | 107 | 55
